The values that follow come from ChEMBL document CHEMBL1159014, “Isolation of potential cancer chemopreventive agents from Eriodictyon californicum” (1992).

A short description of assay [1]: Chemopreventive activity in Syrian hamster embryo cells assessed as inhibition of metabolism of [3H]benzo(a)pyrene to water-soluble metabolites after 24 hrs at 20 ug/ml relative to control. It is filed as functional. The conditions noted are these: Mesocricetus auratus, read-out: INH.
Assay [2] can be described thus: Chemopreventive activity in Syrian hamster embryo cells assessed as inhibition of metabolism of [3H]benzo(a)pyrene to water-soluble metabolites after 24 hrs at 10 ug/ml relative to control. It is filed as functional. Conditions: Mesocricetus auratus, read-out: INH.
Assay [3] in a line: Chemopreventive activity in Syrian hamster embryo cells assessed as inhibition of metabolism of [3H]benzo(a)pyrene to water-soluble metabolites after 24 hrs at 5 ug/ml relative to control. It is filed as functional. Conditions: Mesocricetus auratus, read-out: INH.
The next assay is filed under the species Mesocricetus auratus. Nature of the assay: Chemopreventive activity in Syrian hamster embryo cells assessed as inhibition of [3H]benzo(a)pyrene-DNA binding at 10 ug/ml by [35S]phosphorothote post-labeling-HPLC. The format is functional.
Assay [4] in a line: Chemopreventive activity in Syrian hamster embryo cells assessed as pmol of [3H]benzo(a)pyrene binding per mg of DNA at 10 ug/ml by [35S]phosphorothote post-labeling-HPLC. The format is functional, Mesocricetus auratus.
Assay [5] is described as follows: Chemopreventive activity in Syrian hamster embryo cells assessed as pmol of (+)-anti-benzo(a)pyrene-7,8-diol-9,10-epoxide -dGuo adduct per mg of DNA at 10 ug/ml by [35S]phosphorothote post-labeling-HPLC. It is filed as functional, Mesocricetus auratus.

As to `COc1c(O)cc2oc(-c3ccc(O)cc3)cc(=O)c2c1O` [HISPIDULIN], in assay [1], the inhibition at 20 µg/mL was 92%. For the same compound, in assay [2], the inhibition at 10 µg/mL was determined as 75%. The inhibition at 5 µg/mL in assay [3] stood at 18%.

For `O=c1cc(-c2ccccc2)oc2cc(O)cc(O)c12` [CHRYSIN], in assay [1], the inhibition at 20 µg/mL was determined as 86%. Further, in assay [2], the inhibition at 10 µg/mL is 44%. Also, in assay [3], the inhibition at 5 µg/mL stood at 14%.

In the case of `COc1cc2c(c(O)c1OC)C(=O)CC(c1ccc(O)cc1)O2` (stereo unspecified), the inhibition at 20 µg/mL in assay [1] turned out to be 36%.

In the case of `COc1cc([C@@H]2CC(=O)c3c(O)cc(O)cc3O2)ccc1O` [HOMOERIODICTYOL], in assay [1], the inhibition at 20 µg/mL is 36%.

For the compound `COc1cc([C@@H]2CC(=O)c3c(O)cc(O)cc3O2)ccc1OC(=O)C(C)C`, in assay [1], the inhibition at 20 µg/mL came to 52%.

On to `O=C1C[C@@H](c2ccc(O)c(O)c2)Oc2cc(O)cc(O)c21` [ERIODICTYOL], for which the inhibition at 20 µg/mL in assay [1] was found to be 55%. Also, in assay [2], the inhibition at 10 µg/mL worked out at 40%. For the same compound, the inhibition at 5 µg/mL in assay [3] was found to be 16%.

On to `COc1cc(C2CC(=O)c3c(cc(O)c(OC)c3O)O2)ccc1O` (stereo unspecified), for which the inhibition at 20 µg/mL in assay [1] was 32%. Besides, the inhibition at 10 µg/mL in assay [2] is 19%. For the same compound, the inhibition at 5 µg/mL in assay [3] was 9%.

In the case of `COc1cc(O)c2c(c1)O[C@H](c1ccc(O)cc1)CC2=O` [SAKURANETIN], the inhibition at 20 µg/mL in assay [1] was found to be 52%.

Consider `COc1cc(-c2cc(=O)c3c(O)cc(O)cc3o2)ccc1O` [CHRYSOERIOL], for which, in assay [1], the inhibition at 20 µg/mL is 96%. Moreover, in assay [2], the inhibition at 10 µg/mL was determined as 85%. Moreover, the inhibition at 5 µg/mL in assay [3] is 60%. Further, in the assay listed under Mesocricetus auratus, the inhibition was determined as 32%. The values for the Activity in assay [4] and in assay [5] were 44.9 pmol and 22.5 pmol, respectively.

With `O=C1C[C@@H](c2ccccc2)Oc2cc(O)cc(O)c21` [PINOCEMBRIN], the inhibition at 20 µg/mL in assay [1] amounted to 66%. In addition, the inhibition at 10 µg/mL in assay [2] came to 29%. In assay [3], the inhibition at 5 µg/mL stood at 8%.

`COc1cc2oc(-c3ccc(O)cc3)cc(=O)c2c(O)c1OC` [CIRSIMARITIN]: the inhibition at 20 µg/mL in assay [1] was found to be 92%. For the same compound, the inhibition at 10 µg/mL in assay [2] came to 85%. The inhibition at 5 µg/mL in assay [3] worked out at 69%. In addition, in the assay filed under Mesocricetus auratus, the inhibition is 71%. The values for the Activity in assay [4] and in assay [5] were 19.4 pmol and 11.5 pmol, respectively.
